How the values were obtained:
[1] = Cytotoxicity against human MT4 cells assessed as reduction in cell viability incubated for 5 days by MTT assay; type: cell-based
[2] = Selectivity index, ratio of CC50 for human MT4 cells to EC50 for antiviral activity against HIV RES056; type: toxicity; details: read-out: Ratio CC50/EC50
[3] = test system: Human immunodeficiency virus 1; assay: Antiviral activity against drug resistant HIV-1 RES056 harboring reverse transcriptase K103N/Y181C double mutant infected in human MT4 cells assessed as reduction in virus-induced cytopathic effect incubated for 5 days by MTT assay; type: functional, organism-based; details: Human immunodeficiency virus 1, RES056, MT4, 120 h
[4] = test system: Human immunodeficiency virus 1; assay: Antiviral activity against HIV-1 3B infected in human MT4 cells assessed as reduction in virus-induced cytopathic effect incubated for 5 days by MTT assay; type: functional, organism-based; details: Human immunodeficiency virus 1, 3B, MT4, 120 h
[5] = Selectivity index, ratio of CC50 for human MT4 cells to EC50 for antiviral activity against HIV IIIB; type: toxicity; details: read-out: Ratio CC50/EC50

Structure (SMILES)	CC50 at 120 h [1]	selectivity ratio [2]	EC50 [3]	EC50 [4]	selectivity ratio [5]
Cc1cc(C)cc(S(=O)(=O)c2c(C(=O)NC3CN(Cc4ccccc4F)C3)[nH]c3ccc(Cl)cc23)c1	> 238 µM	> 4	65.1 µM	0.03 µM	> 7810
Cc1cc(C)cc(S(=O)(=O)c2c(C(=O)NCCP(=O)(O)O)[nH]c3ccc(Cl)cc23)c1	> 237 µM	–	> 237 µM	0.21 µM	> 1100
Cc1cc(C)cc(S(=O)(=O)c2c(C(=O)NC3CN(S(C)(=O)=O)C3)[nH]c3ccc(Cl)cc23)c1	> 252 µM	–	> 252 µM	0.017 µM	> 15200
Cc1cc(C)cc(S(=O)(=O)c2c(C(=O)NC3CNC3)[nH]c3ccc(Cl)cc23)c1	37.3 µM	< 1	≥ 37.3 µM	0.074 µM	495
Cc1cc(C)cc(S(=O)(=O)c2c(C(=O)N[C@@H]3CCN(Cc4ccccc4F)C3)[nH]c3ccc(Cl)cc23)c1	> 232 µM	–	> 232 µM	0.12 µM	> 1860
Cc1cc(C)cc(S(=O)(=O)c2c(C(=O)NC3CN(Cc4cccnc4)C3)[nH]c3ccc(Cl)cc23)c1	36 µM	< 1	> 36 µM	0.015 µM	2480
Cc1cc(C)cc(S(=O)(=O)c2c(C(=O)N[C@H]3CCN(Cc4n[nH]c(=O)n4C)C3)[nH]c3ccc(Cl)cc23)c1	21.4 µM	< 1	≥ 21.4 µM	0.0072 µM	2980
Cc1cc(C)cc(S(=O)(=O)c2c(C(=O)N[C@H]3CCN(Cc4ccccc4C#N)C3)[nH]c3ccc(Cl)cc23)c1	> 229 µM	> 1	174 µM	0.17 µM	> 1350
Cc1cc(C)cc(S(=O)(=O)c2c(C(=O)NC3CN(Cc4ccccc4C#N)C3)[nH]c3ccc(Cl)cc23)c1	> 235 µM	> 4	66.8 µM	0.013 µM	> 18700
Cc1cc(C)cc(S(=O)(=O)c2c(C(=O)N[C@@H]3CCN(Cc4cccnc4)C3)[nH]c3ccc(Cl)cc23)c1	36.5 µM	< 1	≥ 36.5 µM	0.057 µM	627
Cc1cc(C)cc(S(=O)(=O)c2c(C(=O)N[C@H]3CCN(Cc4cccnc4)C3)[nH]c3ccc(Cl)cc23)c1	22.8 µM	< 1	≥ 22.8 µM	0.011 µM	2010
Cc1cc(C)cc(S(=O)(=O)c2c(C(=O)N[C@@H]3CCNC3)[nH]c3ccc(Cl)cc23)c1	37.3 µM	< 1	≥ 9.72 µM	0.049 µM	–
Cc1cc(C)cc(S(=O)(=O)c2c(C(=O)N[C@H]3CCN(Cc4ccccc4F)C3)[nH]c3ccc(Cl)cc23)c1	215 µM	< 1	≥ 215 µM	0.083 µM	2580
Cc1cc(C)cc(S(=O)(=O)c2c(C(=O)NCCn3ccc(=O)[nH]c3=O)[nH]c3ccc(Cl)cc23)c1	> 265 µM	–	> 265 µM	4.42 µM	> 60
Cc1cc(C)cc(S(=O)(=O)c2c(C(=O)N[C@@H]3CCN(Cc4ccccc4C#N)C3)[nH]c3ccc(Cl)cc23)c1	≥ 186 µM	–	> 186 µM	0.053 µM	2580
Cc1cc(C)cc(S(=O)(=O)c2c(C(=O)N[C@H]3CCNC3)[nH]c3ccc(Cl)cc23)c1	10 µM	< 1	≥ 10 µM	0.021 µM	473
Cc1cc(C)cc(S(=O)(=O)c2c(C(=O)N[C@@H]3CCN(Cc4n[nH]c(=O)n4C)C3)[nH]c3ccc(Cl)cc23)c1	22.4 µM	< 1	≥ 22.4 µM	0.035 µM	634
